The results in this text go back to patent US7700581B2, “Cephalosporin compounds comprising a C3 thio-methyl moiety substituted with N-containing heterocyclic group, and a C7 thiourea acetamido group, their preparations and uses thereof” (Guangzhou Baiyunshan Pharmaceutical Co., Ltd., priority 2007, dated 2010).

Broadly, the AUC is the area under the concentration-time curve, a measure of exposure.

The test system of one series is Salmonella. Put plainly: In vitro antibacterial activity test (MIC). Conditions: read-out: minimum inhibitory concentration (MIC). The class given is cell-based. The procedure:
(§1) In vitro antibacterial activity test of the cephalosporin compounds disclosed herein using the common methods known in the art were conducted.

Series [1] deals with Staphylococcus epidermidis. Put plainly: In vitro antibacterial activity test (MIC). It counts as cell-based. Conditions: read-out: minimum inhibitory concentration (MIC). The procedure:
as §1

Another series concerns Staphylococcus aureus. Put plainly: In vitro antibacterial activity test (MIC). The class given is cell-based. As to conditions: read-out: minimum inhibitory concentration (MIC). The procedure:
as §1

The subject of the next series is Enterococcus. Put plainly: In vitro antibacterial activity test (MIC). The class given is cell-based. Conditions: read-out: minimum inhibitory concentration (MIC). The procedure: as §1
For a further series, the system named is Hemophilus influenzae. Put plainly: In vitro antibacterial activity test (MIC). It counts as cell-based. As to conditions: Haemophilus influenzae, read-out: minimum inhibitory concentration (MIC). The procedure:
as §1

The test system of a further series is Streptococcus pyogenes. The series can be described thus: In vitro antibacterial activity test (MIC). The class given is cell-based. As to conditions: read-out: minimum inhibitory concentration (MIC). The procedure:
as §1

Series [2] deals with Streptococcus hemolyticus group A. The series can be described thus: In vitro antibacterial activity test (MIC). The class given is cell-based. As to conditions: Streptococcus pyogenes, read-out: minimum inhibitory concentration (MIC). The procedure:
as §1

The next series relates to Viridans streptococcus. Put plainly: In vitro antibacterial activity test (MIC). The class given is cell-based. As to conditions: read-out: minimum inhibitory concentration (MIC). The procedure:
as §1

For the next series, the system named is SPF grade mice. Put plainly: Acute toxicity test by intravenous injection. It counts as in vivo. The text has this:
A commonly-used acute toxicity test method was used with SPF grade mice by intravenous injection.

Series [3] in a line: Pharmacokinetic comparative experiment, intravenous injection, plasma by HPLC. It counts as in vivo, Beagle dogs. The procedure: The resulting BYS02 obtained from the Examples 6 and 7 as shown above was used to compare with cefathiamidine in the following pharmacokinetic study.
Commercially available cefathiamidine was used as the comparison in the pharmacokinetic study. Using the cross-over controlled trial experimental design, 6 healthy Beagle dogs were divided into two groups: one group of dogs were intravenously injected with 50 mg/kg.bw of the BYS02 and the other group of dogs were injected with 50 mg/kg.bw of cefathiamidine. Blood samples were taken every 12 hours. The drug plasma concentrations were analyzed using HPLC. The drug plasma concentration over the time data were analyzed using MCPKP program.
Six Beagle dogs were provided by Guangzhou Pharmaceutical Research Institute. They were healthy, male, one-year old, and each weighed 8.0±0.1 kg. The dogs were kept in single-dog cages and fed with water and food according to the standards for laboratory animals. One week before the tests, the dogs were examined for hearts, livers, and kidneys, and they were found normal.
BYS02 was prepared according to Example 6 with a purity of 90%. Cefathiamidine was purchased from the market. Heparin sodium, sodium hydrogen phosphate, citric acid, methanol, ethyl acetate and other agents used were analytical-pure. Propionitrile used was chromatographic-pure. Water is pure. High Performance Liquid Chromatography (HPLC) and high-speed refrigerated centrifuges were used in the tests.
Sixteen hours before and 4 hours after the administration, the Beagle dogs were not allowed to eat food but allowed to drink water freely. After intravenously injection with 50 mg/kg.bw of the BYS02 and cefathiamidine, respectively, the two groups of dogs were taken 3 ml of blood samples intravenously at 0, 0.083, 0.17, 0.25, 0.5, 1, 1.5, 2, 3, 4, 6, 9, and 12 hours. The dogs were administrated every other week and blood samples were collected according to the above schedule. The blood samples were added to centrifuge tubes, mixed with heparin, centrifuged at 4000 rpm for 10 minutes, and the serum samples were stored in a refrigerator at −20° C. until they were used.
Hypersil ODS2, C18 column (4.6 mm×150 mm, 5 μm); mobile phase: propionitrile/phosphate buffer (11/89 volume ratio); wavelength: 254 nm; flow rate: 1.0 ml/min; room temperature; sample size: 20 μl.
Preparation of phosphate buffer (pH 7.0): 2.76 g of sodium hydrogen phosphate, 1.29 g of citric acid and 1000 ml of water were mixed well and filtered.
Drug plasma concentration over the time data were analyzed using MCPKP program to calculate the pharmacokinetic parameters. The average values and standard deviations were also calculated.

The test system of the next series is Streptococcus pneumoniae. Put plainly: In vitro antibacterial activity test (MIC). It counts as cell-based. Conditions: read-out: minimum inhibitory concentration (MIC). The procedure:
as §1

The test system of a further series is Pseudomonas aeruginosa. The series can be described thus: In vitro antibacterial activity test (MIC). The class given is cell-based. Conditions: read-out: minimum inhibitory concentration (MIC). The procedure:
as §1

A short description of series [4]: Water solubility of the product. The class given is physicochemical. Conditions: product of Example 6. The procedure:
200 ml of methylene dichloride and 2.0 g of the intermediate prepared according to Example 1 were added to a three-neck flask. 16 ml of triethylamine was added dropwise to the flask to dissolve the solid. 0.6 g of N,N′-diisopropylthiourea was added to the reaction mixture. The mixture was refluxed until the reaction was complete. A solid product appeared in the reaction mixture. The temperature was lowered and the crystallization was carried out for an hour. The solid was filtered and dried under vacuum to yield 1.5 g of the product. It has a pH value of 5.4 and cloudiness of lower than 1 degree (1 g/10 ml water). The product is water soluble.

Setting [5] is: single intravenous administration.
[6] abbreviates: Beagle dogs, intravenous injection, 50 mg/kg.bw.

Each structure is given as a SMILES string. Converted amounts (≈) assume the structure as drawn. Read-outs that look alike come from different tables or passages of the source.

In the case of `CO/N=C(\C(=O)N[C@@H]1C(=O)N2C(C(=O)O)=C(CSc3nc(=O)c(=O)[nH]n3C)CS[C@H]12)c1csc(N)n1` [Ceftriaxone, ceftriaxone, reference compound], the MIC is 0.125 µg/mL (≈ 0.225 µM) in the series on Salmonella, 2 to 8 µg/mL (≈ 3.61 to 14.4 µM) in series [1], 32 to 64 µg/mL (≈ 57.7 to 115 µM) in the series with Staphylococcus aureus and > 512 µg/mL in the series with Enterococcus.

Turning to `Cc1nc(SCC2=C(C(=O)O)N3C(=O)C(NC(=O)CSC(=NC(C)C)NC(C)C)C3SC2)sc1CC(=O)O` (stereo not drawn) [Compound V, 3-[[[5-(carboxymethyl)-4-methyl-2-thiazolyl]thio]methyl]-7-[[[[[(1-methylethyl)amino][(1-methylethyl)imino]methyl]thio]acetyl]amino]-8-oxo-5-thia-1-aza-bicyclo[4.2.0]oct-2-ene-2-carboxylic acid], the MIC in the series with Salmonella was 2 to 8 µg/mL (≈ 3.32 to 13.3 µM); in the series on Staphylococcus aureus, 0.25 to 2 µg/mL (≈ 0.415 to 3.32 µM); in the series on Hemophilus influenzae, > 256 µg/mL; in the series with Enterococcus, 2 to 8 µg/mL (≈ 3.32 to 13.3 µM); in the series with Streptococcus pyogenes, 0.0312 to 0.5 µg/mL (≈ 0.0518 to 0.831 µM); in series [2], 0.125 to 1 µg/mL (≈ 0.208 to 1.66 µM). The MIC in the series on Viridans streptococcus fell in the range of 0.125 to 4 µg/mL (≈ 0.208 to 6.65 µM).

In turn, `CC(C)N=C(NC(C)C)SCC(=O)NC1C(=O)N2C(C(=O)O)=C(CSc3nc(=O)c(=O)[nH]n3C)CSC12` (stereo not drawn) [Compound II, 3-((1,2,5,6-tetrahydro-2-methyl-5,6-dioxo-1,2,4-triazine-3-ylthio)methyl)-7-[[[[[(1-methylethyl)amino][(1-methylethyl)imino]methyl]thio]acetyl]amino]-8-oxo-5-thia-1-aza-bicyclo[4.2.0]oct-2-ene-2-carboxylic acid] gave an LD50 in the series on SPF grade mice (setting [5]) of 672 mg/kg.bw. Besides, in the series with SPF grade mice (setting [5]), the “LD50 95% confidence limit” value is 650-700 mg/kg.bw. Moreover, the mortality entry with SPF grade mice (single intravenous injection of 465 mg/kg.bw) is “No death”; in the series with SPF grade mice (single intravenous injection of 930 mg/kg.bw or more), “the animals died after 10 seconds of struggling”. In series [3] (setting [6]), the ClB turned out to be 7.83 ± 1.5 mL/min/kg. Besides, in [3] (setting [6]), the Co came to 208.97 ± 61.16 µg/mL. The V1 in series [3] (setting [6]) was 0.25 ± 0.07 L/kg. In [3] (setting [6]), this compound gave a VB of 1.61 ± 0.30 L/kg. In addition, the t1/2α in series [3] (setting [6]) worked out at 37.8 ± 7.2 min. In [3] (setting [6]), this compound displayed a t1/2β of 131 ± 2.4 min. For the same compound, the AUC in [3] (male, dog, in vivo, Beagle dogs, intravenous injection, 50 mg/kg.bw, read-out: AUC) was determined as 108 ± 18.2 µg·h/mL. The MIC was 0.0312 to 2 µg/mL (≈ 0.0546 to 3.5 µM) in [1]; 1 to 4 µg/mL (≈ 1.75 to 7 µM) in the series on Staphylococcus aureus; 8 to 16 µg/mL (≈ 14 to 28 µM) with Hemophilus influenzae; 0.125 to 0.5 µg/mL (≈ 0.219 to 0.875 µM) in the series with Streptococcus pneumoniae; 4 to 8 µg/mL (≈ 7 to 14 µM) in the series on Enterococcus; > 512 µg/mL in the series with Pseudomonas aeruginosa. In addition, in series [4], the solubility in water entry is on record as “water soluble”.

In [3] (dog, in vivo, iv, 50 mg/kg), `CC(=O)OCC1=C(C(=O)O)N2C(=O)[C@@H](NC(=O)CSC(=NC(C)C)NC(C)C)[C@H]2SC1` [cefathiamidine, reference compound] returned an AUC of 42.25 ± 1.02 µg·h/mL, a ClB of 19.7 ± 0.5 mL/min/kg, a Co of 90.84 ± 29.71 µg/mL and a V1 of 0.59 ± 0.20 L/kg. In [3] (dog, in vivo, iv, 50 mg/kg), this compound showed a VB of 1.11 ± 0.07 L/kg, a t1/2α of 12.6 ± 8.4 min and a t1/2β of 39 ± 1.8 min.
